Several values for one entry are separate records, joined by “and”; a condition that tells them apart may be missing. Identical values can stand only once.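 Tested at 5 concentrations; 48 h exposure; 96-well plates; endpoints linearly interpolated, else capped at highest concentration. GI50 is the concentration that inhibits growth by half. At the TGI there is no net growth.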

Test systems include UACC-62 melanoma; CAKI-1 renal; UACC-257 melanoma; A549 NSCLC; UO-31 renal; NCI-H460 lung; SF-268 CNS; SN12C renal; SK-MEL-28 melanoma; SK-OV-3 ovarian.
Experiment in all cases: NCI tumour cell line growth inhibition, 48 h

As to `C[C@@](Br)(C(=O)O)[C@H](Br)C(=O)O`, the TGI in the assay on UACC-62 melanoma, in the assay on CAKI-1 renal, with UACC-257 melanoma, in the assay on A549 NSCLC, in the assay with UO-31 renal and with NCI-H460 lung was more than 100 µM each time. Further, the TGI in the assay with SF-268 CNS, in the assay with SN12C renal, in the assay on SK-MEL-28 melanoma and with SK-OV-3 ovarian was more than 100 µM throughout.
As to `O=c1ccn([C@@H]2C=C(CO)[C@@H](O)[C@H]2O)c(=O)[nH]1`, the TGI with UACC-62 melanoma, in the assay on CAKI-1 renal, in the assay on A549 NSCLC, in the assay with UO-31 renal, in the assay with NCI-H460 lung and in the assay with SF-268 CNS was more than 625 µM throughout. Besides, the TGI in the assay with SN12C renal, in the assay on SK-MEL-28 melanoma and in the assay with SK-OV-3 ovarian was more than 625 µM in each case.
As to `O=C(/C=C/CC(O)(c1ccccc1)c1ccccc1)Nc1ccccc1Cl`, the TGI in the assay on UACC-62 melanoma, in the assay on CAKI-1 renal, in the assay on UACC-257 melanoma, in the assay with UO-31 renal, in the assay with NCI-H460 lung and with SF-268 CNS was more than 100 µM each time. In addition, the TGI in the assay on SN12C renal, with SK-MEL-28 melanoma and with SK-OV-3 ovarian was more than 100 µM in each case.
With `CCOP(=O)(CC1OC(CO)C(O)C1O)OCC` (centres undefined), the TGI in the assay on UACC-62 melanoma, in the assay on CAKI-1 renal, in the assay on UACC-257 melanoma, with A549 NSCLC, with UO-31 renal and in the assay on NCI-H460 lung was more than 100 µM throughout. For the same molecule, the TGI with SF-268 CNS, in the assay on SN12C renal, in the assay with SK-MEL-28 melanoma and in the assay with SK-OV-3 ovarian was more than 100 µM in each case.
In the case of `O=C(CCl)Nc1ccc(C(=O)N/N=C/c2ccc(Cl)cc2)cc1`, the GI50 was 1.71 µM in the assay with UACC-62 melanoma; 1.87 µM in the assay on CAKI-1 renal; 12.2 µM with UACC-257 melanoma; 3.96 µM in the assay with A549 NSCLC; 1.81 µM with SF-268 CNS; 3.59 µM in the assay on SK-MEL-28 melanoma. Besides, in the assay on SK-OV-3 ovarian, the GI50 is 12.3 µM. Also, the TGI with UACC-62 melanoma was 3.2 µM and 8.78 µM; with CAKI-1 renal, 4.39 µM and 3.35 µM; in the assay with UACC-257 melanoma, 3.73 µM and 25 µM; with A549 NSCLC, 15.2 µM; in the assay with UO-31 renal it was 10.6 µM; in the assay with NCI-H460 lung, 3.84 µM and 4.23 µM. Also, the TGI in the assay on SF-268 CNS was 3.88 µM and 6.85 µM; in the assay on SN12C renal, 9.71 µM and 7.07 µM; with SK-MEL-28 melanoma, 16.8 µM; in the assay with SK-OV-3 ovarian, 8.02 µM and 24.7 µM.
On to `N#Cc1ccnc(C(=O)N2CCCC2C(=O)O)c1` (centres undefined), for which the TGI in the assay with UACC-62 melanoma, with CAKI-1 renal, in the assay with UACC-257 melanoma, in the assay with A549 NSCLC, in the assay on UO-31 renal and with NCI-H460 lung was more than 100 µM in each case. In addition, the TGI in the assay on SF-268 CNS, with SN12C renal and in the assay with SK-MEL-28 melanoma was more than 100 µM throughout.
With `O=c1[nH]nc(-c2ccc([N+](=O)[O-])cc2)[nH]1`, the TGI with UACC-62 melanoma, in the assay on CAKI-1 renal, with UACC-257 melanoma, in the assay with A549 NSCLC, in the assay with UO-31 renal and with NCI-H460 lung was more than 100 µM throughout. Besides, the TGI in the assay on SF-268 CNS, in the assay on SN12C renal and in the assay on SK-MEL-28 melanoma was more than 100 µM in each case.
As to `Cc1cccc2c(N)c3cccc(C(=O)NCC[N+](C)(C)[O-])c3nc12`, the TGI with UACC-62 melanoma is 26.8 µM; in the assay with CAKI-1 renal, more than 100 µM; in the assay with UACC-257 melanoma it was 60.3 µM; in the assay on A549 NSCLC, more than 100 µM; in the assay with UO-31 renal it was more than 100 µM; with NCI-H460 lung it was 10.2 µM. The TGI was more than 100 µM in the assay with SF-268 CNS, more than 100 µM in the assay on SN12C renal, 45.2 µM in the assay on SK-MEL-28 melanoma and 64.6 µM with SK-OV-3 ovarian.
Take `COc1cccc(Nc2nc3c([nH]2)c(=O)n(C)c(=O)n3C)c1`: the TGI with UACC-62 melanoma, in the assay on CAKI-1 renal, in the assay on UACC-257 melanoma, in the assay on A549 NSCLC, with SF-268 CNS and in the assay with SN12C renal was more than 10 µM in each case. The TGI with SK-MEL-28 melanoma and in the assay with SK-OV-3 ovarian was more than 10 µM throughout.
As to `Fc1cccc(F)c1C1SCc2nc3cc(Cl)ccc3n21` (centres undefined), the TGI in the assay with UACC-62 melanoma is more than 100 µM; in the assay on CAKI-1 renal, more than 65.9 µM; in the assay with UACC-257 melanoma, more than 60.6 µM; in the assay on A549 NSCLC, more than 100 µM; with UO-31 renal, more than 47.2 µM; in the assay on NCI-H460 lung, more than 100 µM. For the same molecule, the TGI in the assay on SF-268 CNS, in the assay with SN12C renal, with SK-MEL-28 melanoma and in the assay on SK-OV-3 ovarian was more than 100 µM each time.
In the case of `O=C(O)C12C3C4(C(=O)O)C1C1(C(=O)O)C2C3(C(=O)O)C41` (centres undefined), the TGI in the assay with UACC-62 melanoma, in the assay with CAKI-1 renal, in the assay on UACC-257 melanoma, with A549 NSCLC, with UO-31 renal and with NCI-H460 lung was more than 100 µM in each case. Further, the TGI with SF-268 CNS, in the assay with SN12C renal and with SK-MEL-28 melanoma was more than 100 µM throughout.
Turning to `CC(C)(C)C#CI1OC(=O)c2ccccc21`, the TGI with UACC-62 melanoma was found to be 13.8 µM; with CAKI-1 renal it was 7.21 µM; in the assay with UACC-257 melanoma, 25.7 µM; in the assay with A549 NSCLC, 31.9 µM; in the assay on UO-31 renal, 14.6 µM; in the assay with NCI-H460 lung it was 11.9 µM. In addition, the TGI came to 14.3 µM in the assay on SF-268 CNS, 19 µM with SN12C renal, 17.8 µM in the assay on SK-MEL-28 melanoma and 25.1 µM in the assay with SK-OV-3 ovarian.
Turning to `COc1cc2c3cc1Oc1cc(ccc1O)C[C@@H]1c4c(cc(OC)c(O)c4Oc4ccc(cc4)C[C@@H]3[N+](C)(C)CC2)CC[N+]1(C)C`, the TGI in the assay with UACC-62 melanoma, in the assay on CAKI-1 renal, in the assay on UACC-257 melanoma, with A549 NSCLC, in the assay with UO-31 renal and in the assay with NCI-H460 lung was more than 100 µM in each case. Also, the TGI in the assay with SF-268 CNS, in the assay on SN12C renal and in the assay with SK-MEL-28 melanoma was more than 100 µM each time.
